Columns and labels:
Format in all cases: cell-based
Aspergillus flavus = assay: Agar plate disc-diffusion, antifungal activity by inhibition zone
Description: (§1) The agar plate disc-diffusion method was applied. Sterilized filter papers (6 mm in diameter) were wetted with 10 μL of a solution of compounds 6-(6-bromo-2-oxo-2H-chromen-3-yl)-4-(2-chlorophenyl)-2-ethoxynicotinonitrile 1 or 6-(6-bromo-2-oxo-2H-chromen-3-yl)-4-(2-chlorophenyl)-2-methoxynicotinonitrile 2 to be tested, containing […], and the discs were allowed to air dry. The discs were then placed onto the surface of agar plates (nutrient agar for bacteria and Sabouraud's dextrose agar for fungi) seeded with the test organism. Each plate contained 15 mL of the agar medium, previously seeded with 0.2 mL of the broth culture of each organism pregrown for 18 hours. The plates were incubated at 37° C. for 48 hours, and 72 hours for fungi. The inhibition zones were measured in mm. Discs impregnated with DMSO were used as a control, and its inhibition zone was subtracted from the tested compound actual inhibition zone.
(§2) The results of the antimicrobial testing can be observed in Tables 1 and 2, below, using ciprofloxacin as a reference.

[1] = tested on: Chrysosporium keratinophilum; assay: as above
Description: as §1, §2

Staphylococcus aureus = assay: Agar plate disc-diffusion, antibacterial activity by inhibition zone
Description: as §1, §2

Pseudomonas aeruginosa = assay: as above
Description: as §1, §2

Escherichia coli = assay: as above
Description: as §1, §2

Bacillus cereus = assay: as above
Description: as §1, §2

different microbes = assay: Antimicrobial testing, overall conclusion; conditions: summary of Tables 1 and 2
Description: as §1
Their antibacterial activity was screened against gram positive bacteria namely Bacillus cereus and Staphylococcus aureus and gram-negative bacterial strains namely Pseudomonas aeruginosa and Escherichia coli, while their antifungal activity was screened against Aspergillus flavus and Chrysosporium keratinophilum.

[2] = A = concentration of comp. = 10,000 μL
[3] = B = concentration of comp. = 30,000 μL
[4] = C = concentration of comp. = 50,000 μL

SMILES | inhibition zone (Aspergillus flavus; [2]) [mm] | inhibition zone (Aspergillus flavus; [3]) [mm] | inhibition zone (Aspergillus flavus; [4]) [mm] | inhibition zone [1, 2] [mm] | inhibition zone [1, 3] [mm] | inhibition zone [1, 4] [mm] | inhibition zone (Staphylococcus aureus; [2]) [mm] | inhibition zone (Staphylococcus aureus; [3]) [mm] | inhibition zone (Staphylococcus aureus; [4]) [mm] | inhibition zone (Pseudomonas aeruginosa; [2]) [mm] | inhibition zone (Pseudomonas aeruginosa; [3]) [mm] | inhibition zone (Pseudomonas aeruginosa; [4]) [mm] | inhibition zone (Escherichia coli; [2]) [mm] | inhibition zone (Escherichia coli; [3]) [mm] | inhibition zone (Escherichia coli; [4]) [mm] | inhibition zone (Bacillus cereus; [2]) [mm] | inhibition zone (Bacillus cereus; [3]) [mm] | inhibition zone (Bacillus cereus; [4]) [mm] | antimicrobial activities (different microbes)
O=C(O)c1cn(C2CC2)c2cc(N3CCNCC3)c(F)cc2c1=O [Cip., ciprofloxacin, reference compound] | 29 | 30 | 42 | 29 | 30 | 53 | 43 | 44 | 53 | 29 | 30 | 53 | 30 | 39 | 60 | 29 | 30 | 42 | –
COc1nc(-c2cc3cc(Br)ccc3oc2=O)cc(-c2ccccc2Cl)c1C#N [Compound 2, 6-(6-bromo-2-oxo-2H-chromen-3-yl)-4-(2-chlorophenyl)-2-methoxynicotinonitrile] | 25 | 28 | 39 | 22 | 28 | 41 | 16 | 24 | 32 | 26 | 33 | 39 | 27 | 35 | 46 | 25 | 30 | 39 | high antimicrobial activities
CCOc1nc(-c2cc3cc(Br)ccc3oc2=O)cc(-c2ccccc2Cl)c1C#N [Compound 1, 6-(6-bromo-2-oxo-2H-chromen-3-yl)-4-(2-chlorophenyl)-2-ethoxynicotinonitrile] | 19 | 21 | 29 | 26 | 27 | 38 | 17 | 20 | 36 | 26 | 30 | 40 | 27 | 38 | 49 | 26 | 29 | 39 | high antimicrobial activities

Reference: patent publication US11905278B1, “6-(6-bromo-2-oxo-2H-chromen-3-yl)-4-(2-chlorophenyl)-2-alkoxynicotinonitrile as an antimicrobial compound” (KING FAISAL UNIVERSITY, priority 2023, dated 2024)
